16 compounds from US12129312B2, “Peptide compound, application thereof and composition containing same” (priority 2017, dated 2024) can be followed below.

Each structure is given as a SMILES string. Numbered stars: 1 amine (or outer) side, 2 acyl side, 3 side chain; on linkers, the order of the positions; unused ones are H or OH. Square brackets hold non-standard residues; d marks the D form. Peptide text beside a SMILES is read from it. * marks the point of attachment. PEG8 = NCCOCCOCCOCCOCCOCCOCCOCCOCCC(=O)O; X6 = CCCN([C@@H](CC(C)C)C(=O)[*:2])[*:1]; Pro(4,4-F2) = O=C(O)[C@@H]1CC(F)(F)CN1; 1Nal = N[C@@H](Cc1cccc2ccccc12)C(=O)O; 2Nal = N[C@@H](Cc1ccc2ccccc2c1)C(=O)O; dNMeY = CN[C@H](Cc1ccc(O)cc1)C(=O)O; Hydrocinnamoyl = O=C(CCc1ccccc1)*; Palmitoyl = CCCCCCCCCCCCCCCC(=O)*; NEtLeu = CCN[C@@H](CC(C)C)C(=O)O; Myristoyl = CCCCCCCCCCCCCC(=O)*; Tic = O=C(O)[C@@H]1Cc2ccccc2CN1; dTic = O=C(O)[C@H]1Cc2ccccc2CN1; Gly(N-CH2CH2OH) = O=C(O)CNCCO; NMeL = CN[C@@H](CC(C)C)C(=O)O; NMehSer = CN[C@@H](CCO)C(=O)O; Lauroyl = CCCCCCCCCCCC(=O)*; d(hSer) = N[C@H](CCO)C(=O)O; NMeS = CN[C@@H](CO)C(=O)O; hSer = N[C@@H](CCO)C(=O)O; βAla = NCCC(=O)O

The term EC50 denotes the concentration giving half of the maximal effect.

This test addresses T1, human Chemokine like receptor 1 (Homo sapiens, UniProt Q99788).
T1 construct: host or cells: U2OS (Tango CMKLR1-bla U2OS)
T1 sequence (Q99788 1-373): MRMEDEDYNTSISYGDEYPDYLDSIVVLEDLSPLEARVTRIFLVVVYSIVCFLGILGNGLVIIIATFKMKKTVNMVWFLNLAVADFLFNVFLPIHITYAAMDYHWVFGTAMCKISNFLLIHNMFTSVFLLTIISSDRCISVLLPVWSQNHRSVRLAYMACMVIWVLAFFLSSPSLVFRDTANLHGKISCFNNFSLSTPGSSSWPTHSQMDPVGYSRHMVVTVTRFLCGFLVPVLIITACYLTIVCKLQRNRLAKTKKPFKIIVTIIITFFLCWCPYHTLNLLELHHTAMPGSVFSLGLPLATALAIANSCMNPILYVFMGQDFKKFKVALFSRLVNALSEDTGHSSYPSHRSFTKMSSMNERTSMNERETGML
The test can be described thus: Activation of Tango CMKLR1-bla U2OS cells (beta-lactamase FRET reporter). Format: cell-based. To be noted: determination by the method of Effect Embodiment 1; read-out: EC50. The method, boiled down:
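Agonist mode in Tango CMKLR1-bla U2OS cells, 10000 cells/well seeded overnight, then 10-point 3-fold compound dilutions from 10 mM DMSO stock applied for 4 h at 37 °C, 5% CO2. Beta-lactamase reporter read with CCF4-AM FRET substrate; peptide (D-Tyr)-Phe-Leu-Pro-(D-Ser)-Gln-Phe-(D-Ala)-Tic-Ser served as positive control.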
On to `CN[C@H](Cc1ccc(O)cc1)C(=O)N[C@@H](Cc1ccccc1)C(=O)N(C)[C@@H](CC(C)C)C(=O)N1CCC[C@H]1C(=O)N[C@H](CO)C(=O)N[C@@H](CCC(N)=O)C(=O)N[C@@H](Cc1ccc2ccccc2c1)C(=O)N[C@H](C)C(=O)N1Cc2ccccc2C[C@H]1C(=O)N[C@@H](CO)C(=O)O` [YW-167, (D-NMe-Tyr)-Phe-(NMe-Leu)-Pro-(D-Ser)-Gln-2Nal-(D-Ala)-Tic-Ser-OH] (H-[dNMeY]F[NMeL]P[dS]Q[2Nal][dA][Tic]S-OH), for which the EC50 was found to be 0.8 nM.
As for `CN[C@H](Cc1ccc(O)cc1)C(=O)N[C@@H](Cc1ccccc1)C(=O)N(C)[C@@H](CC(C)C)C(=O)N1CCC[C@H]1C(=O)N[C@H](CO)C(=O)N[C@@H](CCC(N)=O)C(=O)N[C@@H](Cc1cccc2ccccc12)C(=O)N[C@H](C)C(=O)N1Cc2ccccc2C[C@H]1C(=O)N[C@@H](CO)C(=O)O` [YW-168, (D-NMe-Tyr)-Phe-(NMe-Leu)-Pro-(D-Ser)-Gln-1Nal-(D-Ala)-Tic-Ser-OH] (H-[dNMeY]F[NMeL]P[dS]Q[1Nal][dA][Tic]S-OH), the 50% effective concentration (EC50) was determined as 1.2 nM.
Consider `CC(C)C[C@@H](C(=O)N1CCC[C@H]1C(=O)N[C@H](CO)C(=O)N[C@@H](CCC(N)=O)C(=O)N[C@@H](Cc1ccccc1)C(=O)N[C@H](C)C(=O)N1Cc2ccccc2C[C@H]1C(=O)N[C@@H](CCO)C(=O)O)N(C)C(=O)[C@H](Cc1ccccc1)NC(=O)[C@H](N)Cc1ccc(O)cc1` [YW-171, (D-Tyr)-Phe-(NMe-Leu)-Pro-(D-Ser)-Gln-Phe-(D-Ala)-Tic-HoSer-OH] (H-[dY]F[NMeL]P[dS]QF[dA][Tic][hSer]-OH), for which the EC50 was found to be 29 nM.
In the case of `CC(C)C[C@@H](C(=O)N1CCC[C@H]1C(=O)N[C@H](CO)C(=O)N[C@@H](CCC(N)=O)C(=O)N[C@@H](Cc1ccccc1)C(=O)N[C@H](C)C(=O)N1Cc2ccccc2C[C@H]1C(=O)N(CCO)CC(=O)O)N(C)C(=O)[C@H](Cc1ccccc1)NC(=O)[C@H](N)Cc1ccc(O)cc1` [YW-172, (D-Tyr)-Phe-(NMe-Leu)-Pro-(D-Ser)-Gln-Phe-(D-Ala)-Tic-NHoSer-OH] (H-[dY]F[NMeL]P[dS]QF[dA][Tic][Gly(N-CH2CH2OH)]-OH) it was 5.8 nM.
On to `CC(C)C[C@@H](C(=O)N1CC(F)(F)C[C@H]1C(=O)N[C@H](CO)C(=O)N[C@@H](CCC(N)=O)C(=O)N[C@@H](Cc1ccccc1)C(=O)N[C@H](C)C(=O)N1Cc2ccccc2C[C@H]1C(=O)N[C@@H](CO)C(=O)O)N(C)C(=O)[C@H](Cc1ccccc1)NC(=O)[C@H](N)Cc1ccc(O)cc1` [YW-174, (D-Tyr)-Phe-(NMe-Leu)-Pro(diF)-(D-Ser)-Gln-Phe-(D-Ala)-Tic-Ser-OH] (H-[dY]F[NMeL][Pro(4,4-F2)][dS]QF[dA][Tic]S-OH), for which the EC50 turned out to be 1.2 nM.
`CC(C)C[C@@H](C(=O)N1CCC[C@H]1C(=O)N[C@H](CCO)C(=O)N[C@@H](CCC(N)=O)C(=O)N[C@@H](Cc1ccccc1)C(=O)N[C@H](C)C(=O)N1Cc2ccccc2C[C@H]1C(=O)N[C@@H](CO)C(=O)O)N(C)C(=O)[C@H](Cc1ccccc1)NC(=O)[C@H](N)Cc1ccc(O)cc1` [YW-175, (D-Tyr)-Phe-(NMe-Leu)-Pro-(D-HoSer)-Gln-Phe-(D-Ala)-Tic-Ser-OH] (H-[dY]F[NMeL]P[d(hSer)]QF[dA][Tic]S-OH; N-terminus assumed): the EC50 is 91 nM.
As for `CC(C)C[C@@H](C(=O)N1CCC[C@H]1C(=O)N[C@H](CO)C(=O)N[C@@H](CCC(N)=O)C(=O)N[C@@H](Cc1ccccc1)C(=O)N[C@H](C)C(=O)N1Cc2ccccc2C[C@H]1C(=O)N(C)[C@@H](CCO)C(=O)O)N(C)C(=O)[C@H](Cc1ccccc1)NC(=O)[C@H](N)Cc1ccc(O)cc1` [YW-177, (D-Tyr)-Phe-(NMe-Leu)-Pro-(D-Ser)-Gln-Phe-(D-Ala)-Tic-(NMe-HoSer)-OH] (H-[dY]F[NMeL]P[dS]QF[dA][Tic][NMehSer]-OH), the EC50 turned out to be 25 nM.
With `CCCCCCCCCCCCCCCC(=O)NCCOCCOCCOCCOCCOCCOCCOCCOCCC(=O)NCC(=O)NCC(=O)N(C)[C@H](Cc1ccc(O)cc1)C(=O)N[C@@H](Cc1ccccc1)C(=O)N(C)[C@@H](CC(C)C)C(=O)N1CCC[C@H]1C(=O)N[C@H](CO)C(=O)N[C@@H](CCC(N)=O)C(=O)N[C@@H](Cc1ccc2ccccc2c1)C(=O)N[C@H](C)C(=O)N1Cc2ccccc2C[C@H]1C(=O)N(C)[C@@H](CO)C(=O)O` [YW-178, Palm-PEG8-Gly-Gly-(D-NMe-Tyr)-Phe-(NMe-Leu)-Pro-(D-Ser)-Gln-2Nal-(D-Ala)-Tic-(NMe-Ser)] ({Palmitoyl-PEG8}-GG[dNMeY]F[NMeL]P[dS]Q[2Nal][dA][Tic][NMeS]-OH), the EC50 stood at 2.1 nM.
Take `CCCCCCCCCCCCCCCC(=O)NCCOCCOCCOCCOCCOCCOCCOCCOCCC(=O)NCCC(=O)NCCC(=O)N(C)[C@H](Cc1ccc(O)cc1)C(=O)N[C@@H](Cc1ccccc1)C(=O)N(C)[C@@H](CC(C)C)C(=O)N1CCC[C@H]1C(=O)N[C@H](CO)C(=O)N[C@@H](CCC(N)=O)C(=O)N[C@@H](Cc1ccc2ccccc2c1)C(=O)N[C@H](C)C(=O)N1Cc2ccccc2C[C@H]1C(=O)N(C)[C@@H](CO)C(=O)O` [YW-179, Palm-PEG8-(beta-Ala)-(beta-Ala)-(D-NMeTyr)-Phe-(NMe-Leu)-Pro-(D-Ser)-Gln-2Nal-(D-Ala)-Tic-(NMe-Ser)] ({Palmitoyl-PEG8-βAla-βAla}-[dNMeY]F[NMeL]P[dS]Q[2Nal][dA][Tic][NMeS]-OH): the EC50 came out at 2.1 nM.
In the case of `CCCCCCCCCCCCCC(=O)NCCOCCOCCOCCOCCOCCOCCOCCOCCC(=O)NCCC(=O)NCCC(=O)N(C)[C@H](Cc1ccc(O)cc1)C(=O)N[C@@H](Cc1ccccc1)C(=O)N(C)[C@@H](CC(C)C)C(=O)N1CCC[C@H]1C(=O)N[C@H](CO)C(=O)N[C@@H](CCC(N)=O)C(=O)N[C@@H](Cc1ccc2ccccc2c1)C(=O)N[C@H](C)C(=O)N1Cc2ccccc2C[C@H]1C(=O)N(C)[C@@H](CO)C(=O)O` [YW-180, Tetradecanoyl-PEG8-βAla-βAla-(D-NMe-Tyr)-Phe-(NMe-Leu)-Pro-(D-Ser)-Gln-2Nal-(D-Ala)-Tic-(NMe-Ser)] ({Myristoyl-PEG8-βAla-βAla}-[dNMeY]F[NMeL]P[dS]Q[2Nal][dA][Tic][NMeS]-OH) it was 1.4 nM; in that of `CCCCCCCCCCCC(=O)NCCOCCOCCOCCOCCOCCOCCOCCOCCC(=O)NCCC(=O)NCCC(=O)N(C)[C@H](Cc1ccc(O)cc1)C(=O)N[C@@H](Cc1ccccc1)C(=O)N(C)[C@@H](CC(C)C)C(=O)N1CCC[C@H]1C(=O)N[C@H](CO)C(=O)N[C@@H](CCC(N)=O)C(=O)N[C@@H](Cc1ccc2ccccc2c1)C(=O)N[C@H](C)C(=O)N1Cc2ccccc2C[C@H]1C(=O)N(C)[C@@H](CO)C(=O)O` [YW-181, Dodecanoyl-PEG8-βAla-βAla-(NMe-D-Tyr)-Phe-(NMe-Leu)-Pro-(D-Ser)-Gln-2Nal-(D-Ala)-Tic-(NMe-Ser)] ({Lauroyl-PEG8-βAla-βAla}-[dNMeY]F[NMeL]P[dS]Q[2Nal][dA][Tic][NMeS]-OH), 2.2 nM.
In the case of `CC(C)C[C@@H](C(=O)N1CCC[C@H]1C(=O)N[C@H](CO)C(=O)N[C@@H](CCC(N)=O)C(=O)N[C@@H](Cc1ccccc1)C(=O)N[C@H](C)C(=O)N1Cc2ccccc2C[C@@H]1C(=O)N(C)[C@@H](CO)C(=O)O)N(C)C(=O)[C@H](Cc1ccccc1)NC(=O)[C@H](N)Cc1ccc(O)cc1` [YW-182, (D-Tyr)-Phe-(NMe-Leu)-Pro-(D-Ser)-Gln-Phe-(D-Ala)-(D-Tic)-(NMe-Ser)] (H-[dY]F[NMeL]P[dS]QF[dA][dTic][NMeS]-OH) it was 41 nM; in that of `CCN(C(=O)[C@H](Cc1ccccc1)NC(=O)[C@H](N)Cc1ccc(O)cc1)[C@@H](CC(C)C)C(=O)N1CCC[C@H]1C(=O)N[C@H](CO)C(=O)N[C@@H](CCC(N)=O)C(=O)N[C@@H](Cc1ccccc1)C(=O)N[C@H](C)C(=O)N1Cc2ccccc2C[C@H]1C(=O)N[C@@H](CO)C(=O)O` [YW-183, (D-Tyr)-Phe-(NEt-Leu)-Pro-(D-Ser)-Gln-Phe-(D-Ala)-Tic-Ser] (H-[dY]F[NEtLeu]P[dS]QF[dA][Tic]S-OH), 9.2 nM.
For the compound `CCCN(C(=O)[C@H](Cc1ccccc1)NC(=O)[C@H](N)Cc1ccc(O)cc1)[C@@H](CC(C)C)C(=O)N1CCC[C@H]1C(=O)N[C@H](CO)C(=O)N[C@@H](CCC(N)=O)C(=O)N[C@@H](Cc1ccccc1)C(=O)N[C@H](C)C(=O)N1Cc2ccccc2C[C@H]1C(=O)N[C@@H](CO)C(=O)O` [YW-184, (D-Tyr)-Phe-(NPr-Leu)-Pro-(D-Ser)-Gln-Phe-(D-Ala)-Tic-Ser] (H-[dY]F[X6]P[dS]QF[dA][Tic]S-OH), the concentration for a half-maximal effect (EC50) came to 16 nM.
For `CCN(C(=O)[C@H](Cc1ccccc1)NC(=O)[C@@H](Cc1ccc(O)cc1)NC(=O)CCc1ccccc1)[C@@H](CC(C)C)C(=O)N1CCC[C@H]1C(=O)N[C@H](CO)C(=O)N[C@@H](CCC(N)=O)C(=O)N[C@@H](Cc1ccccc1)C(=O)N[C@H](C)C(=O)N1Cc2ccccc2C[C@H]1C(=O)N[C@@H](CO)C(=O)O` [YW-185, 3-Phenylpropanoyl-(D-Tyr)-Phe-(NEt-Leu)-Pro-(D-Ser)-Gln-Phe-(D-Ala)-Tic-Ser] (Hydrocinnamoyl-[dY]F[NEtLeu]P[dS]QF[dA][Tic]S-OH), the EC50 came out at 5.9 nM.
The figure for `CCCN(C(=O)[C@H](Cc1ccccc1)NC(=O)[C@@H](Cc1ccc(O)cc1)NC(=O)CCc1ccccc1)[C@@H](CC(C)C)C(=O)N1CCC[C@H]1C(=O)N[C@H](CO)C(=O)N[C@@H](CCC(N)=O)C(=O)N[C@@H](Cc1ccccc1)C(=O)N[C@H](C)C(=O)N1Cc2ccccc2C[C@H]1C(=O)N[C@@H](CO)C(=O)O` [YW-186, 3-Phenylpropanoyl-(D-Tyr)-Phe-(NPr-Leu)-Pro-(D-Ser)-Gln-Phe-(D-Ala)-Tic-Ser] (Hydrocinnamoyl-[dY]F[X6]P[dS]QF[dA][Tic]S-OH) is 11 nM.
